Like-named read-outs stand apart in the source and are kept apart here. Bounds are passed on as bounds.

For data set [1], the system named is platelet-rich plasma of healthy human donors. Nature of the data set: Determination of platelet aggregation by the method of Born and Cross (collagen-induced, platelet-rich plasma). Particulars: 10^-4 mol/lit., compared with control batch without test compound; for inhibition at 100 µM: Homo sapiens, Platelet. It is filed as cell-based. As for the experimental part:
1. Determination of platelet aggregation by the method of Born and Cross (see J. Physiol. 170, 397 (1964)):
The platelet aggregation was measured in the platelet-rich plasma of healthy human donors. The alterations of the optical density of the platelet suspension was measured and recorded photometrically after the addition of commercial collagen manufactured by Hormonchemie, Munich, Germany, containing 1 mgm of collagen fibrils per ml. From the angle of inclination of the density curve, the rate of aggregation was estimated (Vmax). The optical density (O.D.) was taken at the point on the curve where the most light was transmitted. Small doses of collagen were chosen, but sufficient to give irreversible aggregation. To provoke maximum aggregation, about 0.01 ml of the collagen solution was added to 1 ml of platelet-rich plasma.
The numbers in Table I represent the % reduction in the aggregation rate (Vmax) and the % change in optical density (O.D.), compared with a control batch without addition of a test compound.

The next data set concerns mice. The experiment in a line: Determination of the prolongation of the bleeding time. The format is in vivo. The conditions noted are these: 10 mgm/kg orally, awake mice, compared with untreated control group. The procedure: 2. determination of the prolongation of the bleeding time:
To determine the effect on the bleeding time, 10 mgm/kg of the test compound were administered orally to awake, unanesthetized mice. After 1 hour, and again after 3 hours, about 0.5 mm from the end of the tail of each animal was cut off, and the exuded blood was carefully soaked up into filter paper every 30 seconds. The number of drops of blood so obtained provided a measure for the bleeding time (5 animals/experiment).
The numbers in Table II represent the prolongation in %, compared with an untreated control group: […]

Data set [2] in a line: Acute toxicity in white mice after oral application of a single dose. The format is in vivo. Particulars: mouse, in vivo, observation time 14 days. As for the experimental part:
(§1) The acute toxicity of the compounds was determined in white mice (observation time: 14 days) after oral application of a single dose: […]

The next data set has as its system white mice. The description is as above. The format is in vivo. Particulars: 1000 mgm/kg, observation time 14 days. As for the experimental part:
as §1

The mark [3] stands for this setting: read-out: % Reduction (change) in optical density (O.D.).
Setting [4] is: read-out: % Reduction in the aggregation rate (Vmax).

With `CCOC(=O)C[S+]([O-])C(C)c1ccc(C2CCCCC2)c(Cl)c1` (stereo not drawn) [D, Ethyl [1-(3'-chloro-4'-cyclohexyl-phenyl)-ethylsulfinyl]-acetate], in data set [1] (100 µM), the “% Reduction (change) in optical density (O.D.)” value amounted to 89% and the “% Reduction in the aggregation rate (Vmax)” value came out at 87%. Further, in the data set on mice, the “Prolongation of the bleeding time in % after 1 hour” value (from here on “Prolongation … in % after 1 hour”) turned out to be 49%.
One may read the LD50 as the dose at which mortality reaches 50%. For the compound `CC(c1ccc(C2CCCCC2)c(Cl)c1)[S+]([O-])CC(=O)N1CCCCC1` (stereo not drawn) [E, [1-(3'-chloro-4'-cyclohexyl-phenyl)-ethylsulfinyl]-acetic acid piperidide], the inhibition at 100 µM amounted to 92% in data set [1] (setting [3]) and 90% in data set [1] (setting [4]). Further, the “Prolongation … in % after 1 hour” value in the data set with mice is 37%. In data set [2], this compound returned a median lethal dose (LD50) at 336 h of more than 1000 mg/kg. Further, the “Acute toxicity: animals died” value in the data set with white mice was 0 out of 10.
Turning to `CC(c1ccc(C2CCCCC2)cc1)[S+]([O-])CC(=O)O` (stereo not drawn) [Compound A, [1-(4'-cyclohexyl-phenyl)-ethylsulfinyl]-acetic acid], in the data set with mice, the “Prolongation … in % after 1 hour” value worked out at 300% and the “Prolongation of the bleeding time in % after 3 hours” value is given as 122%. In addition, the LD50 at 336 h in data set [2] was more than 1000 mg/kg. Moreover, the “Acute toxicity: animals died” value in the data set with white mice is on record as 0 out of 10.
For `COC(=O)C[S+]([O-])C(C)c1ccc(C2CCCCC2)cc1` (stereo not drawn) [B, methyl [1-(4'-cyclohexyl-phenyl)-ethylsulfinyl]-acetate] the same measures were 117%, 51%, more than 1000 mg/kg and 0 out of 10.
Consider `COC(=O)C[S+]([O-])C(C)c1ccc(C2CCCCC2)c(Cl)c1` (stereo not drawn) [C, methyl [1-(3'-chloro-4'-cyclohexyl-phenyl)-ethylsulfinyl]-acetate], for which the inhibition at 100 µM in data set [1] (setting [3]) turned out to be 89%; in data set [1] (setting [4]), 85%.

The values are drawn from patent US4062973A, “Sulfur-containing derivatives of cyclohexylphenyl-ethane” (Boehringer Ingelheim GmbH, priority 1975, dated 1977).
